What was measured:
[1] = target: hROMK (hKir1.1) (Homo sapiens (Human), UniProt P48048); test: Thallium Flux Assay (ROMK channel functional thallium flux, FLIPR-Tetra); assay type: cell-based; settings: HEK293 cells stably expressing hROMK (hKir1.1)
Description: HEK293 cells stably expressing hROMK (hKir1.1) were grown at 37° C. in a 10% CO2 humidified incubator in complete growth media: Dulbecco's Modified Eagle Medium supplemented with non-essential amino acids, Penicillin/Streptomycin/Glutamine, G418 and FBS. At >80% confluency, aspirate the media from the flask and rinse with 10 mL Calcium/Magnesium-free PBS. Add 5 mL of 1× trypsin (prepared in Ca/Mg Free PBS) to T-225 flask and return flask to 37° C./CO2 incubator for 2-3 minutes. To dislodge the cell, gently bang the side of the flask with your hand. Triturate the cells completely and then transfer the cells to 25 mL complete media. Centrifuge at 1,500 rpm for 6 min followed by resuspension in complete growth media and determine cell concentration. For typical re-seeding, 4E6 cells/T-225 flask will attain>80% confluency in 4 days. Under ideal growth conditions and appropriate tissue culture practices, this cell line is stable for 40-45 passages.
• FluxOR™ Reagent (Component A) • FluxOR™ Assay Buffer (Component B)—10× Concentrate • PowerLoad™ Concentrate (Component C)—100× Concentrate • Probenecid (Component D)—Lyophilized sample is kept at −20° C. Water soluble, 100× after solubilization in 1 mL water. Store at 4° C. • FluxOR™ Chloride-free Buffer (Component E)—5× Concentrate • Potassium sulfate (K2SO4) Concentrate (Component F)—125 mM in water. Store at 4° C. • Thallium sulfate (Tl2SO4) Concentrate (Component G)—50 mM in water. Store at 4° C. • DMSO (dimethyl sulfoxide, Component H)—1 mL (100%) Reagent Preparation: FluxOR Working Solutions • 1000× FluxOR™ Reagent: Reconstitute a vial of component A in 100 μl DMSO; Mix well; Store 10 μl aliquots at −20° C. • 1× FluxOR™ Assay Buffer: Dilute Component B 10-fold with water; Adjust pH to 7.4 with Hepes/NaOH; Filter and store at 4° C. • Probenecid/Assay Buffer: 100 mL of 1× FluxOR™ Assay Buffer; 1 mL of reconstituted component D; Store at 4° C. • Loading Buffer (per microplate): 10 μl 1000× FluxOR™ Reagent; 100 μl component C; 10 mL Probenecid/Assay Buffer • Compound Buffer (per microplate): 20 mL Probenecid/Assay Buffer; 0.3 mM ouabain (10 mM ouabain in water can be stored in amber bottle/aluminum foil at room temperature); Test compound • 1× FluxOR™ Chloride-Free Buffer: Prepare 1× working solution in water. Can be stored at room temperature • Stimulant Buffer (prepared at 5× final concentration in 1× FluxOR™ Chloride-Free Buffer): 7.5 mM Thallium sulfate and 0.75 mM Potassium sulfate (to give a final assay concentration of 3 mM Thallium/0.3 mM Potassium). Store at 4° C. when not in use. If kept sterile, this solution is good for months. Assay Protocol—
The ROMK channel functional thallium flux assay is performed in 384 wells, using the FLIPR-Tetra instrument. HEK-hKir1.1 cells are seeded in Poly-D-Lysine microplates and kept in a 37° C.-10% CO2 incubator overnight. On the day of the experiment, the growth media is replaced with the FluxOR™ reagent loading buffer and incubated, protected from light, at ambient temperature (23-25° C.) for 90 min. The loading buffer is replaced with assay buffer±test compound followed by 30 min incubation at ambient temperature, where the Thallium/Potassium stimulant is added to the microplate.
• 1. Seed HEK-hKir1.1 cells (50 μl at 20,000 cells/well) in 384-well PDL coated Microplates • 2. Allow cells to adhere overnight in humidified 37° C./10% CO2 incubator • 3. Completely remove cell growth media from microplate and replace with 25 μl loading buffer • 4. Incubate Microplate at room temperature, protected form light, for 90 min • 5. Remove loading buffer and replace with 25 μl 1× Assay Buffer±test compound. • 6. Incubate microplate at room temperature, protected form light, for 30 min • 7. At FLIPR-Tetra 384: Add stimulant (Thallium/Potassium) solution to microplate and monitor fluorescence. Excitation=400 nm, Emission=460 & 580 nm. Collect data for ˜10 min. Data Calculation—

[2] = target: Kir1.1 (ROMK1) (Homo sapiens (Human), UniProt P48048); test: Electrophysiology Assay (whole cell voltage clamp, IonWorks Quattro); assay type: cell-based; settings: Chinese hamster ovary cells stably expressing Kir1.1; block during voltage step to 0 mV
Sequence of Kir1.1 (ROMK1) (P48048 whole entry): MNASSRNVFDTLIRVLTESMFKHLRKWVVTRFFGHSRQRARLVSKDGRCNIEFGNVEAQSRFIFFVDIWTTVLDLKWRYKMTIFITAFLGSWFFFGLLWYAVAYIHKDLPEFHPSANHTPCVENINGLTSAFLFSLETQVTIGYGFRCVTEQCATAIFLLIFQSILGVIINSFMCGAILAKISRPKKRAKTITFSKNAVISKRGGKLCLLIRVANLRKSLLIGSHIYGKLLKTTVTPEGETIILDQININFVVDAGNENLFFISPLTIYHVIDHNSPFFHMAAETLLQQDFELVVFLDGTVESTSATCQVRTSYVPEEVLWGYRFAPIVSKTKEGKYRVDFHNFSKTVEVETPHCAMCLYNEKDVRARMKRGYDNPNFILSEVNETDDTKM
Description: Block of Kir1.1 (ROMK1) currents was examined by whole cell voltage clamp (Hamill et. al. […] Prior to an experiment, Kir1.1 expression was induced by overnight incubation with 1 mM sodium butyrate. […] After centrifugation, the cell pellet was resuspended in approximately 4.0 mL of bath solution and placed in the IonWorks instrument. The intracellular solution consisted of (in mM): 80 K gluconate, 40 KCl, 20 KF, 3.2 MgCl2, 3 EGTA, 5 Hepes, pH 7.4. […] Amphotericin B (Sigma A-4888) was prepared as a 40 mg/mL solution in DMSO. Voltage protocols and current recordings were performed using the IonWorks HT software/hardware system. […] No correction for liquid junction potentials was used. The test pulse, consisting of a 100 ms step to 0 mV from a holding potential of −70 mV, followed by a 100 ms voltage ramp from −70 mV to +70 mV, was applied before and after a 6 min compound incubation period. Test compounds were prepared by diluting DMSO stock solutions into the bath solution at 3× the final concentration and placed in the instrument in 96-well polypropylene plates. Current amplitudes were measured using the IonWorks software. To assess compound potency, the fractional block during the voltage step to 0 mV was calculated in Microsoft Excel (Microsoft, Redmond, Calif.), and dose-response curves were fitted with Igor Pro 4.0 (WaveMetrics, Lake Oswego, Oreg.).

Sequence of hROMK (hKir1.1) (P48048 whole entry): as above

Row | Compound | IC50 [1] | IC50 [2]
1 | COc1cc(F)c([C@H]2CN3CCN(C(=O)C4CCc5nc(-n6cnnn6)ccc54)C[C@@H]3CO2)cc1C#N (stereo partly shown) [Example 77] | 400 nM | 290 nM
2 | N#Cc1cc([C@@H]2CN3CCN(C(=O)C4CCc5nc(-n6cnnn6)ncc54)C[C@H]3CO2)ccc1F (stereo partly shown) [Example 79] | 210 nM | 190 nM
3 | N#Cc1cc([C@@H]2CN3CCN(C(=O)C4CCc5nc(-n6cnnn6)ncc54)C[C@@H]3CO2)ccc1F (stereo partly shown) [Example 80] | 260 nM | 120 nM
4 | N#Cc1c(F)ccc([C@@H]2CN3CCN(C(=O)C4CCc5nc(-n6cnnn6)ncc54)C[C@@H]3CO2)c1Cl (stereo partly shown) [Example 81] | 170 nM | 60 nM
5 | N#Cc1c(F)ccc([C@@H]2CN3CCN(C(=O)C4CCc5nc(-n6cnnn6)ncc54)C[C@@H]3CO2)c1Cl (stereo partly shown) [Example 82] | 140 nM | 50 nM
6 | N#Cc1c(F)ccc([C@H]2CN3CCN(C(=O)C4CCc5nc(-n6cnnn6)ncc54)C[C@@H]3CO2)c1Cl (stereo partly shown) [Example 83] | 360 nM | 80 nM
7 | Cc1c([C@@H]2CN3CCN(C(=O)C4CCc5cc(-n6cnnn6)cnc54)C[C@@H]3CO2)ccc(F)c1C#N (stereo partly shown) [Example 91] | 550 nM | 140 nM
8 | Cc1c([C@H]2CN3CCN(C(=O)C4CCc5cc(-n6cnnn6)ncc54)C[C@H]3CO2)ccc(C#N)c1F (stereo partly shown) [Example 93] | 430 nM | 180 nM
9 | Cc1c([C@H]2CN3CCN(C(=O)C4CCc5cc(-n6cnnn6)ncc54)C[C@H]3CN2)ccc(F)c1C#N (stereo partly shown) [Example 97] | 160 nM | 90 nM
10 | Cc1c([C@@H]2CN3CCN(C(=O)C4CCc5nc(-n6cnnn6)ccc54)C[C@H]3CN2)ccc(F)c1C#N (stereo partly shown) [Example 98] | 390 nM | 170 nM
11 | Cc1c([C@@H]2CN3CCN(C(=O)C4CCc5cc(-n6cnnn6)cnc54)C[C@H]3CN2)ccc(F)c1C#N (stereo partly shown) [Example 99] | 430 nM | 350 nM
12 | Cc1c([C@@H]2CN3CCN(C(=O)C4CCc5cc(-n6cnnn6)cnc54)C[C@H]3CN2)ccc(F)c1C#N (stereo partly shown) [Example 100] | 750 nM | 280 nM
13 | Cc1c([C@H]2CN3CCN(C(=O)C4CCc5nc(-n6cnnn6)ncc54)C[C@H]3CN2)ccc(F)c1C#N (stereo partly shown) [Example 102] | 450 nM | 100 nM
14 | Cc1c([C@H]2CN3CCN(C(=O)C4CCc5cc(-n6cnnn6)ncc54)C[C@@H]3CN2)ccc(F)c1C#N (stereo partly shown) [Example 103] | 180 nM | 110 nM
15 | Cc1c([C@H]2CN3CCN(C(=O)C4CCc5cc(-n6cnnn6)ncc54)C[C@@H]3CN2)ccc(F)c1C#N (stereo partly shown) [Example 104] | 360 nM | 120 nM
16 | Cc1c([C@@H]2CN3CCN(C(=O)C4CCc5cc(-n6cnnn6)ncc54)C[C@@H]3CN2)ccc(F)c1C#N (stereo partly shown) [Example 105] | 140 nM | 80 nM
17 | Cc1c([C@@H]2CN3CCN(C(=O)C4CCc5cc(-n6cnnn6)ncc54)C[C@@H]3CN2)ccc(F)c1C#N (stereo partly shown) [Example 106] | 400 nM | 120 nM

From US9062070B2, “Inhibitors of the renal outer medullary potassium channel” (Merck Sharp & Dohme Corp., priority 2011, dated 2015)
